Measured values: patent US20240059738A1, “SWITCHING PEPTIDE AND MULTIPLEX IMMUNOASSAY METHOD USING SAME” (OPTOLANE TECHNOLOGIES INC., priority 2021, published 2024)
pKd: −log10 of the molar value.

How the values were obtained:
[1] = system: Anti-CRP antibody(r); experiment: Antigen-induced release of fluorescently labeled peptide from immobilized antibody (Table 2), CRP antigen; format: binding; conditions: anti-CRP antibody (rabbit)
[2] = system: Anti-HBsAg antibody(g); experiment: Antigen-induced release of fluorescently labeled peptide from immobilized antibody (Table 2), HBsAg antigen; format: binding, goat; conditions: for fluorescence intensity remaining at bottom of plate after antigen (% of before): anti-HBsAg antibodies from goats; for Bottom (B) of microplate Change (%) / fluorescence intensity Bottom (B) of microplate After antigen binding / fluorescence intensity Bottom (B) of microplate Before antigen binding / fluorescence intensity In solution (S) After antigen binding / fluorescence intensity In solution (S) Before antigen binding: anti-HBsAg antibody (goat), HBsAg
[3] = system: rabbit anti-HRP antibodies (Fab region); experiment: Papain treatment of immobilized antibody with bound fluorescently labeled switching peptide (FIG. 6B); format: binding; conditions: after papain treatment compared to before
Description: FIG. 6A is a schematic diagram illustrating states before and after treatment of the antibody to which the four types of peptides of Example 1 were bound, respectively, with papain, which is a protease, and FIG. 6B is graphs illustrating a fluorescence intensity measured at a bottom (B) of the microplate and in a solution (S) after the papain treatment. In the case of this experiment, after immobilization of the antibodies (rabbit anti-HRP antibodies) on the microplate, binding between the antibody and the switching peptide was induced by treatment with a fluorescently labeled switching peptide, the unbound switching peptide was removed, and then the Fab region was hydrolyzed from the immobilized antibodies by adding papain, which is a protease.
Referring to FIG. 6A, the fluorescence at the bottom (B) of the microplate is expected to decrease after the papain reaction because the fluorescently labeled switching peptides are bound to the Fab region of antibodies, and the fluorescence in the solution is expected to increase because the Fab region to which the switching peptide is bound is hydrolyzed and dissolved into the solution. This prediction is proven to be true from the graphs of FIG. 6B.

[4] = system: HRP, CRP, HBsAg, and hCG
Experimental: After immobilizing the hepatitis B surface antigen (HBsAg)-antibody detected using the immunoassay of the peptide compounds of Example 1 on a microplate, L1 peptide was added, and 0.04 to 30 μg/ml of the hepatitis B surface antigen was treated.

[5] = system: hepatitis B surface antigen-antibody; experiment: Antibody binding properties (fluorescence signal) of switching peptides at pH 6.0 to 8.0
Experimental: (§1) Regarding the antibody binding properties of the switching peptides at pH 6.0 to 8.0, a net charge of H1 and L2 peptides decreased to 0.5 at pH 6.0 to 7.0 due to a histidine residue with a pKa value of 6.02. In addition, the net charge of the H2 and L2 peptides decreased to 0.5 at pH 7.0 to 8.0 due to a cysteine residue with a pKa value of 8.18. […] Therefore, the immunoassay was performed by selecting an L1 peptide having specific dissociation from hepatitis B surface antigen-antibody binding and stability within a pH range of human serum immunoassay.

[6] = system: Anti-hCG antibody(m); experiment: Antigen-induced release of fluorescently labeled peptide from immobilized antibody (Table 2), hCG antigen; format: binding; conditions: anti-hCG antibody (mouse)
[7] = system: Anti-HRP antibody(r); experiment: Antigen-induced release of fluorescently labeled peptide from immobilized antibody (Table 2), HRP antigen; format: binding, rabbit; conditions: for remaining fluorescence intensity at plate bottom after antigen binding (% of before): anti-HRP antibodies from rabbits; for Bottom (B) of microplate Change (%) / fluorescence intensity Bottom (B) of microplate After antigen binding / fluorescence intensity Bottom (B) of microplate Before antigen binding / fluorescence intensity In solution (S) After antigen binding / fluorescence intensity In solution (S) Before antigen binding: anti-HRP antibody (rabbit), HRP
[8] = system: anti-HRP antibody from a rabbit; experiment: One-step immunoassay with varying HRP concentration (FIGS. 7A-7C); format: binding; conditions: HRP 0.3 to 100 μM; for pKd: estimated, read-out: Equilibrium dissociation constants
Description: FIG. 7A is a schematic diagram for explaining an immunoassay method using fluorescently labeled peptide compounds of Example 1, and FIGS. 7B and 7C are graphs illustrating the fluorescence intensities in a solution and at a bottom of the microplate depending on a concentration of the antigen measured by the immunoassay method illustrated in FIG. 7A. In this experiment, an anti-HRP antibody from a rabbit immobilized on a microplate was used as the binding antibody and HRP was used as the antigen.

[9] = system: H2 peptide; experiment: FRET interaction between L1 and H2 peptides on microplate; format: binding; conditions: with increasing concentration of L1 peptide; FAM/TAMRA labels
Description: (§2) FIG. 4A is diagrams illustrating a method for confirming a specific interaction between L1 and H2 peptides and a specific interaction between L2 and H1 peptides and the measurement results thereof, and FIG. 4B is diagrams for explaining a specific interaction between L1 and H2 peptides and a specific interaction between L2 and H1 peptides analyzed using PyMOL software. Here, at the ends of the L1 and L2 peptides, a first fluorescent label, FAM (λex=488 nm, λem=532 nm) was modified, and at the ends of the H1 and H2 peptides, a second fluorescent label, TAMRA λex=532 nm, λem=570 nm) was modified. Meanwhile, the first peptide (L1 or L2) was immobilized on a parylene-H-coated microplate through a covalent bond between a formyl group of parylene-H and a primary amine group of a lysine residue in the peptide, and the second peptide (H2 or H1) was incubated with the immobilized first peptide (L1 or L2) to allow specific interactions between them.
Referring to FIG. 4A, the interaction between the L1 and H2 peptides was observed by changing the concentration of the L1 peptide, and the FRET intensity increased with increasing the concentration of the L1 peptide.

[10] = system: L2 peptide; experiment: FRET interaction between H1 and L2 peptides on microplate; format: binding; conditions: with increasing concentration of H1 peptide; FAM/TAMRA labels
Description: as §2

[11] = Net charge of switching peptides at pH 6.0 to 8.0; format: physicochemical
Experimental: as §1

[12] = pH 6.0 to 7.0, histidine residue pKa 6.02
[13] = pH 7.0 to 8.0, cysteine residue pKa 8.18

Row | Sequence | Bottom (B) of microplate Change (%) [1] | In solution (S) Change (%) [1] | fluorescence intensity Bottom (B) of microplate After antigen binding [1] | fluorescence intensity Bottom (B) of microplate Before antigen binding [1] | fluorescence intensity In solution (S) After antigen binding [1] | fluorescence intensity In solution (S) Before antigen binding [1] | fluorescence intensity remaining at bottom of plate after antigen (% of before) [2] | Bottom (B) of microplate Change (%) [2] | fluorescence intensity Bottom (B) of microplate After antigen binding [2] | fluorescence intensity Bottom (B) of microplate Before antigen binding [2] | fluorescence intensity In solution (S) After antigen binding [2] | decrease of fluorescence intensity at the bottom of the microplate [3] | increase of fluorescence intensity in the solution [3] | Bottom (B) of microplate Change (%) [6] | In solution (S) Change (%) [6] | fluorescence intensity Bottom (B) of microplate After antigen binding [6] | fluorescence intensity Bottom (B) of microplate Before antigen binding [6] | fluorescence intensity In solution (S) After antigen binding [6] | fluorescence intensity In solution (S) Before antigen binding [6] | remaining fluorescence intensity at plate bottom after antigen binding (% of before) [7] | also measured
1 | TYLEWYPQKPGQSPKLLIYK [L1, TYLEW YPQKP GQSPK LLIYK] | −48.6% | +778% | 3456 | 6719 | 6505 | 741 | 48.7% | −51.3% | 5388 | 11062 | 20501 | 84.8% | 1,032% | −61.6% | +187% | 1777 | 4630 | 3580 | 1248 | 12.7% | fluorescence intensity In solution (S) Before antigen binding [2]: 2779; selectivity among the four antigens [4]: highest selectivity; fluorescence signal in pH range required for immunoassay of HBsAg in human serum [5]: almost the same fluorescence signal; Bottom (B) of microplate Change (%) [7]: −87.3%; fluorescence intensity Bottom (B) of microplate After antigen binding [7]: 1990; fluorescence intensity Bottom (B) of microplate Before antigen binding [7]: 15608; fluorescence intensity In solution (S) After antigen binding [7]: 12280; fluorescence intensity In solution (S) Before antigen binding [7]: 2687; fluorescence intensity in the solution depending on the concentration of the antigen (HRP) [8]: increase; pKd [8]: 5.48; FRET intensity [9]: increased
2 | SYWIHWVKQRPGQGLEWIGE [H1, SYWIH WVKQR PGQGL EWIGE] | −26.8% | +152% | 3595 | 4912 | 5659 | 2242 | 41.1% | −58.9% | 4618 | 11225 | 11453 | 84.3% | 2,184% | −65.6% | +206% | 1940 | 5646 | 3921 | 1281 | 12.3% | FRET intensity [10]: increase; net charge [11, 12]: 0.5; Bottom (B) of microplate Change (%) [7]: −87.7%; fluorescence intensity Bottom (B) of microplate After antigen binding [7]: 1451; fluorescence intensity Bottom (B) of microplate Before antigen binding [7]: 11840; fluorescence intensity In solution (S) After antigen binding [7]: 21965; fluorescence intensity In solution (S) Before antigen binding [7]: 2596; fluorescence intensity in the solution depending on the concentration of the antigen (HRP) [8]: increase; pKd [8]: 5.78
3 | VYYCAREPTGTGIYFDVWGK [H2, VYYCA REPTG TGIYF DVWGK] | −39.5% | +677% | 22205 | 22205 | 16311 | 2099 | 63.9% | −36.1% | 18773 | 29367 | 9136 | 58.7% | 2,356% | −88.5% | +416% | 23320 | 23320 | 8545 | 1654 | 14.8% | fluorescence intensity In solution (S) Before antigen binding [2]: 1784; net charge [11, 13]: 0.5; Bottom (B) of microplate Change (%) [7]: −85.2%; fluorescence intensity Bottom (B) of microplate After antigen binding [7]: 1806; fluorescence intensity Bottom (B) of microplate Before antigen binding [7]: 122230; fluorescence intensity In solution (S) After antigen binding [7]: 18128; fluorescence intensity In solution (S) Before antigen binding [7]: 2272; fluorescence intensity in the solution depending on the concentration of the antigen (HRP) [8]: increase; pKd [8]: 5.51
4 | VYYCFQGSHVPFTK [L2, VYYCF QGSHV PFTK] | −44.9% | +883% | 11236 | 20394 | 32187 | 3274 | 35.2% | −64.8% | 9856 | 28002 | 15359 | 72.5% | 2,452% | −90.7% | +456% | 3072 | 33156 | 9402 | 1692 | 25.5% | fluorescence intensity In solution (S) Before antigen binding [2]: 2279; net charge [11, 12]: 0.5; net charge [11, 13]: 0.5; Bottom (B) of microplate Change (%) [7]: −74.5%; fluorescence intensity Bottom (B) of microplate After antigen binding [7]: 3208; fluorescence intensity Bottom (B) of microplate Before antigen binding [7]: 12584; fluorescence intensity In solution (S) After antigen binding [7]: 16135; fluorescence intensity In solution (S) Before antigen binding [7]: 2315; fluorescence intensity in the solution depending on the concentration of the antigen (HRP) [8]: increase; pKd [8]: 5.83
